Literature values, collected in patent publication US20030109670A1, “Cone snail peptides” (University of Utah Research Foundation, priority 2001, published 2003).
Ends that are not written are not given here.

Legend:
[1] = IBS patients
[2] = in vivo
[3] = in vivo; remark: listed apart in the source

Cc1[nH]cnc1CN1CCc2c(c3ccccc3n2C)C1=O [Alosteron]
perception of colonic distension and gut compliance [1]: active in modifying the perception of colonic distension and gut compliance
abdominal pain, colonic transit, colon compliance ([1]; phase III compound): reduce abdominal pain, slow colonic transit and increase colon compliance

CSCC[C@@H]1NC(=O)[C@H](CC(C)C)NC(=O)[C@H](CCCNC(=N)N)NC(=O)[C@H](CO)NC(=O)[C@@H]2CSSC[C@@H]3NC(=O)[C@H](CO)NC(=O)CNC(=O)[C@H]([C@@H](C)O)NC(=O)[C@H](CSSC[C@H](N)C(=O)N[C@@H](CCCCN)C(=O)NCC(=O)N[C@@H](CCCCN)C(=O)NCC(=O)N[C@@H](C)C(=O)N[C@@H](CCCCN)C(=O)N2)NC(=O)[C@H](CSSC[C@@H](C(N)=O)NC(=O)[C@H](CCCCN)NC(=O)CNC(=O)[C@H](CO)NC(=O)[C@H](CCCNC(=N)N)NC3=O)NC(=O)[C@H](CC(=O)O)NC(=O)[C@H](Cc2ccc(O)cc2)NC1=O [ω-Conotoxin MVIIA]
potency relative to morphine [2]: approximately 1000 times
tolerance or addictive properties [2]: does not produce the tolerance or addictive properties of opiates

Contulakin-G: 16 amino acid O-linked glycopeptide from Conus geographus, agonist of neurotensin receptors (QSEEGGSNATKKPYIL; also: O-linked glycan, site not given here; UniProt Q9XYR5 51-66, looked up)
potency in inhibiting pain relative to neurotensin [3]: significantly more potent than neurotensin
